In patent publication US9944645B2, “Imidazotriazines and imidazopyrimidines as kinase inhibitors” (Incyte Holdings Corporation, priority 2006, dated 2018):

These compounds were tested against c-Met kinase (h-Met; histidine-tagged c-Met catalytic domain fusion protein) (Homo sapiens (Human), UniProt P08581) (assay: In Vitro c-Met Kinase Enzyme Assays). Conditions: phosphorylation of poly Glu-Tyr, 5 μM ATP, 25 minutes at 30° C.
Type: biochemical
Procedure, shortened: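 His-tagged c-Met catalytic domain reacted 25 min at 30° C, within the linear initial-rate range. Phosphotyrosine detected by ELISA with peroxidase-labeled anti-phospho-tyrosine antibody and TMB, OD read at 450 nm (540 nm correction); IC50 from curve fit.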

c-Met kinase (h-Met; histidine-tagged c-Met catalytic domain fusion protein), sequence (P08581 1078-1345): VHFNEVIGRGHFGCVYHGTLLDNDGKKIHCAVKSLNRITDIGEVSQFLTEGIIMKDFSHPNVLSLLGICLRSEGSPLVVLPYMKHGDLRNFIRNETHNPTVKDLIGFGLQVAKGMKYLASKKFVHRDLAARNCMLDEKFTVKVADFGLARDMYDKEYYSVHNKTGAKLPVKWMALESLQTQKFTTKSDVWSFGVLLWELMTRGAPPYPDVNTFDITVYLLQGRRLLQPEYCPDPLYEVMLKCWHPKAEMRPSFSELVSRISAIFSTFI

Row | IC50 | SMILES
1 | < 500 nM | COC(=O)N1CCC(CC#N)(n2cc(-c3cnc4ncc(Cc5ccc6ncccc6c5)n4n3)cn2)CC1 [Example 203, Methyl 4-(cyanomethyl)-4-{4-[7-(quinolin-6-ylmethyl)imidazo[1,2-b][1,2,4]triazin-2-yl]-1H-pyrazol-1-yl}piperidine-1-carboxylate]
2 | < 500 nM | CCOC(=O)N1CCC(CC#N)(n2cc(-c3cnc4ncc(Cc5ccc6ncccc6c5)n4n3)cn2)CC1 [Example 204, Ethyl 4-(cyanomethyl)-4-{4-[7-(quinolin-6-ylmethyl)imidazo[1,2-b][1,2,4]triazin-2-yl]-1H-pyrazol-1-yl}piperidine-1-carboxylate]
3 | < 500 nM | CC(=O)N1CCC(CC#N)(n2cc(-c3cnc4ncc(Cc5ccc6ncccc6c5)n4n3)cn2)CC1 [Example 205, (1-Acetyl-4-{4-[7-(quinolin-6-ylmethyl)imidazo[1,2-b][1,2,4]triazin-2-yl]-1H-pyrazol-1-yl}piperidin-4-yl)acetonitrile]
